Measurements reported in the supplement of paper PMC10627819.

How the values were obtained:
Assay in all cases: fitness (endpoint OD595 vs no drug) (fraction); higher = more growth
B. subtilis 168 = system: B. subtilis 168
In short: (§1)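 Plates with 384 wells were inoculated at OD595 0.01 using 30 µl of TSB, LB Lennox or CY, or 55 µl for S. pneumoniae. Incubation was at 37 °C, with OD595 measured every 30 min for 14 h. Fitness is the stationary-phase transition optical density over the robust mean of no-drug control wells, after first-reading background subtraction; it is capped at 1.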

S. aureus Newman = system: S. aureus Newman
In short: as §1

S. pneumoniae D39V = system: S. pneumoniae D39V
In short: as §1

S. aureus DSM 20231 = system: S. aureus DSM 20231
In short: as §1

CO/N=C(\C(=O)N[C@@H]1C(=O)N2C(C(=O)O)=C(COC(N)=O)CS[C@H]12)c1ccco1 [Cefuroxime] + N[C@@H]1CONC1=O [Cycloserine D]
fitness, B. subtilis 168
Conditions | partner 0.125 µg/mL | partner 0.25 µg/mL | partner 0.5 µg/mL
first compound 0.0975 µg/mL | 0.677 | 0.63 | 0.648
first compound 0.195 µg/mL | 0.396 | 0.41 | 0.372

fitness, one replicate
Conditions | first compound 0.04875 µg/mL | first compound 0.0975 µg/mL | first compound 0.195 µg/mL | first compound 0.39 µg/mL | first compound 0.78 µg/mL | first compound 1.562 µg/mL | first compound 3.125 µg/mL | first compound 6.25 µg/mL
B. subtilis 168, partner 0.125 µg/mL | – | – | – | 0.337 | 0.303 | 0.361 | 0.287 | 0.201
B. subtilis 168, partner 0.25 µg/mL | – | – | – | 0.404 | 0.319 | 0.305 | 0.22 | 0.173
B. subtilis 168, partner 0.5 µg/mL | – | – | – | 0.306 | 0.284 | 0.228 | 0.204 | 0.111
S. aureus Newman, partner 0.375 µg/mL | 0.926 | 0.887 | 0.935 | – | – | – | – | –
S. aureus Newman, partner 0.75 µg/mL | 0.965 | 0.822 | 0.908 | – | – | – | – | –
S. aureus Newman, partner 1.5 µg/mL | 0.871 | 0.861 | 0.976 | – | – | – | – | –

O=C(O)c1cn(C2CC2)c2cc(N3CCNCC3)c(F)cc2c1=O [Ciprofloxacin] + CO/N=C(\C(=O)N[C@@H]1C(=O)N2C(C(=O)O)=C(COC(N)=O)CS[C@H]12)c1ccco1 [Cefuroxime]
fitness, B. subtilis 168
Conditions | first compound 0.0098 µg/mL | first compound 0.0195 µg/mL | first compound 0.039 µg/mL
partner 0.04875 µg/mL | 0.632 | 0.391 | 0.042
partner 0.0975 µg/mL | – | 0.212 | 0.0421
partner 0.195 µg/mL | 0.317 | 0.0634 | 0.0359

fitness, one replicate
Conditions | partner 0.04875 µg/mL | partner 0.0975 µg/mL | partner 0.195 µg/mL | partner 0.39 µg/mL | partner 0.78 µg/mL | partner 1.562 µg/mL | partner 3.125 µg/mL | partner 6.25 µg/mL
B. subtilis 168, first compound 0.0098 µg/mL | – | – | – | 0.266 | 0.224 | 0.24 | 0.179 | 0.0609
B. subtilis 168, first compound 0.0195 µg/mL | – | – | – | 0.0291 | 0.0398 | 0.0343 | 0.0254 | 0.0167
B. subtilis 168, first compound 0.039 µg/mL | – | – | – | 0.0168 | 0.0177 | 0.0261 | 0.0302 | 0.0254
S. aureus Newman, first compound 0.078 µg/mL | 0.554 | 0.441 | 0.469 | – | – | – | – | –
S. aureus Newman, first compound 0.156 µg/mL | 0.0634 | 0.0619 | 0.0412 | – | – | – | – | –
S. aureus Newman, first compound 0.312 µg/mL | 0.0573 | 0.0666 | 0.061 | – | – | – | – | –

C[C@@H]1O[C@@H]1P(=O)(O)O [Fosfomycin] + CC1=C(C(=O)O)N2C(=O)[C@@H](NC(=O)[C@H](N)c3ccccc3)[C@H]2SC1 [Cephalexin]
Conditions | fitness
B. subtilis 168, first compound 1.562 µg/mL, partner 0.125 µg/mL | 0.66
B. subtilis 168, first compound 1.562 µg/mL, partner 0.25 µg/mL | 0.776
B. subtilis 168, first compound 1.562 µg/mL, partner 0.5 µg/mL | 0.774
B. subtilis 168, first compound 3.124 µg/mL, partner 0.125 µg/mL | 0.573
B. subtilis 168, first compound 3.124 µg/mL, partner 0.25 µg/mL | 0.656
B. subtilis 168, first compound 3.124 µg/mL, partner 0.5 µg/mL | 0.611
B. subtilis 168, first compound 6.248 µg/mL, partner 0.125 µg/mL | 0.404
B. subtilis 168, first compound 6.248 µg/mL, partner 0.25 µg/mL | 0.396
B. subtilis 168, first compound 6.248 µg/mL, partner 0.5 µg/mL | 0.373
S. aureus Newman, first compound 0.781 µg/mL, partner 0.25 µg/mL | 0.677
S. aureus Newman, first compound 0.781 µg/mL, partner 0.5 µg/mL | 0.662
S. aureus Newman, first compound 0.781 µg/mL, partner 1 µg/mL | 0.685
S. aureus Newman, first compound 1.562 µg/mL, partner 0.25 µg/mL | 0.604
S. aureus Newman, first compound 1.562 µg/mL, partner 0.5 µg/mL | 0.561
S. aureus Newman, first compound 1.562 µg/mL, partner 1 µg/mL | 0.616
S. aureus Newman, first compound 3.124 µg/mL, partner 0.25 µg/mL | 0.309
S. aureus Newman, first compound 3.124 µg/mL, partner 0.5 µg/mL | 0.286
S. aureus Newman, first compound 3.124 µg/mL, partner 1 µg/mL | 0.284
S. pneumoniae D39V, first compound 1.25 µg/mL, partner 1 µg/mL | 0.768
S. pneumoniae D39V, first compound 1.25 µg/mL, partner 2 µg/mL | 0.212
S. pneumoniae D39V, first compound 1.25 µg/mL, partner 4 µg/mL | 0.0339
S. pneumoniae D39V, first compound 2.5 µg/mL, partner 2 µg/mL | 0.191
S. pneumoniae D39V, first compound 2.5 µg/mL, partner 4 µg/mL | 0.0402
S. pneumoniae D39V, first compound 5 µg/mL, partner 2 µg/mL | 0.0752
S. pneumoniae D39V, first compound 5 µg/mL, partner 4 µg/mL | 0.0499

fitness, one replicate
Conditions | first compound 1.25 µg/mL | first compound 1.562 µg/mL | first compound 2.5 µg/mL | first compound 3.124 µg/mL | first compound 5 µg/mL | first compound 6.248 µg/mL
B. subtilis 168, partner 1 µg/mL | – | 0.797 | – | 0.673 | – | 0.542
S. pneumoniae D39V, partner 0.125 µg/mL | 0.937 | – | 0.879 | – | 0.713 | –
S. pneumoniae D39V, partner 0.25 µg/mL | 0.933 | – | 0.847 | – | 0.762 | –
S. pneumoniae D39V, partner 0.5 µg/mL | 0.899 | – | 0.847 | – | 0.751 | –

O=C(O)c1cn(C2CC2)c2cc(N3CCNCC3)c(F)cc2c1=O [Ciprofloxacin] + O=C(O)[C@H]1/C(=C/CO)O[C@@H]2CC(=O)N21 [Clavulanic acid]
Conditions | fitness
B. subtilis 168, first compound 0.0098 µg/mL, partner 1.5 µg/mL | 0.912
B. subtilis 168, first compound 0.0098 µg/mL, partner 3 µg/mL | 0.85
B. subtilis 168, first compound 0.0098 µg/mL, partner 6 µg/mL | 0.717
B. subtilis 168, first compound 0.0195 µg/mL, partner 1.5 µg/mL | 0.758
B. subtilis 168, first compound 0.0195 µg/mL, partner 3 µg/mL | 0.643
B. subtilis 168, first compound 0.039 µg/mL, partner 1.5 µg/mL | 0.151
B. subtilis 168, first compound 0.039 µg/mL, partner 3 µg/mL | 0.0402
B. subtilis 168, first compound 0.039 µg/mL, partner 6 µg/mL | 0.0214
S. pneumoniae D39V, first compound 0.125 µg/mL, partner 0.5 µg/mL | 0.957
S. pneumoniae D39V, first compound 0.125 µg/mL, partner 1 µg/mL | 0.913
S. pneumoniae D39V, first compound 0.125 µg/mL, partner 2 µg/mL | 0.796
S. pneumoniae D39V, first compound 0.25 µg/mL, partner 0.5 µg/mL | 0.806
S. pneumoniae D39V, first compound 0.25 µg/mL, partner 1 µg/mL | 0.788

fitness, S. aureus Newman, one replicate
Conditions | first compound 0.078 µg/mL | first compound 0.156 µg/mL | first compound 0.312 µg/mL
partner 0.03125 µg/mL | 0.709 | 0.283 | 0.143
partner 0.0625 µg/mL | 0.695 | 0.216 | 0.0875
partner 0.125 µg/mL | 0.699 | 0.211 | 0.116

CC(=O)Oc1ccccc1C(=O)O [Acetylsalicylic acid] + CC[C@H]1OC(=O)[C@H](C)[C@@H](O[C@H]2C[C@@](C)(OC)[C@@H](O)[C@H](C)O2)[C@H](C)[C@@H](O[C@@H]2O[C@H](C)C[C@H](N(C)C)[C@H]2O)[C@](C)(O)C[C@@H](C)CN(C)[C@H](C)[C@@H](O)[C@]1(C)O [Azithromycin]
fitness, S. aureus DSM 20231
Conditions | first compound 250 µg/mL | first compound 500 µg/mL | first compound 1000 µg/mL
partner 0.125 µg/mL | 0.806 | 0.714 | 0.601
partner 0.25 µg/mL | 0.83 | 0.748 | 0.614
partner 0.5 µg/mL | 0.702 | – | 0.597
